Assay results reported in PubChem BioAssay (NCI).
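Where inhibition never reached the appropriate level, the endpoint shown equals the highest concentration tested. Otherwise, values were interpolated linearly from a five-concentration, 48-hour dose response in 96-well plates. Definition used: TGI = concentration required for complete inhibition of growth.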

What was measured:
Experiment in all cases: DTP human tumour cell line panel, 48 h
COLO 205 colon = test system: COLO 205 colon
A498 renal = test system: A498 renal
786-0 renal = test system: 786-0 renal
UO-31 renal = test system: UO-31 renal
SF-268 CNS = test system: SF-268 CNS
UACC-257 melanoma = test system: UACC-257 melanoma
EKVX NSCLC = test system: EKVX NSCLC
OVCAR-5 ovarian = test system: OVCAR-5 ovarian
MDA-MB-231 breast = test system: MDA-MB-231 breast
HS 578T breast = test system: HS 578T breast

SMILES | TGI (COLO 205 colon) [µM] | TGI (A498 renal) [µM] | TGI (786-0 renal) [µM] | TGI (UO-31 renal) [µM] | TGI (SF-268 CNS) [µM] | TGI (UACC-257 melanoma) [µM] | TGI (EKVX NSCLC) [µM] | TGI (OVCAR-5 ovarian) [µM] | TGI (MDA-MB-231 breast) [µM] | TGI (HS 578T breast) [µM]
CSc1nnc2n1-c1ccccc1SCC2 | > 100 | > 100 | > 100 | > 100 | > 100 | > 100 | > 100 |  |  | 
C=C1[C@@H]2CCC(C)(C)[C@H]1CCC(=O)[C@@H]2C(=O)OC | > 100 | > 100 | > 100 | > 100 | > 100 | > 100 | > 100 |  |  | 
CCOC(=O)/C(C#N)=C/c1[nH]c(C)c(C)c1C | > 100 | > 100 | > 100 | > 100 | > 100 | > 100 | > 100 | > 100 |  | 
NCCCSCC(=O)O | > 100 |  | > 100 | > 100 | > 100 | > 100 | > 100 | > 100 |  | 
Cc1cccc(C)c1NC(=O)/C(CC(=O)CC(c1ccccc1)c1c(O)c2ccccc2oc1=O)=N/O (stereo not given) | > 100 |  | > 100 | > 100 | > 100 | > 100 | > 100 | > 100 | > 100 | > 100
C[C@]12CC[C@H](O)CC1CCC[C@@H]2O (stereo not given in full) | > 100 | > 100 | > 100 | > 100 | > 100 | > 100 | > 100 |  |  | 
COc1cccc(/C=N/[N-]C(N)=O)c1[O-].[Cu+2].c1ccncc1 | 32.2 | 45.5 | 24 | 44.3 | 39.2 | > 100 | 65.5 | 45.1 |  | 
CC1(C)OC(=O)C(c2ccsc2)C(=O)O1 | > 100 |  | > 100 | > 100 | > 100 | > 100 | > 100 | > 100 |  | 
O=c1cc(/C=C/c2ccccc2)c2ccc(O/C(=C\c3ccccc3)c3nc4ccccc4c(=O)o3)cc2o1 | 73.8 | > 100 | > 100 |  | 35.8 | 98.4 | > 100 | > 100 |  | 
Cn1c(=O)ccc2cc(C(=O)c3ccccc3)ccc21 | > 100 | > 100 | > 100 |  | > 100 |  | > 100 | > 100 |  | 
CCCCCCCCCCCCCCCc1nc(SCC(=O)O)n[nH]1 |  |  | 42.1 | > 100 | > 100 | > 100 | > 100 |  |  | 
COc1ccc2c(c1)[n+](=O)c(C(=O)C/C(=N\NC(=O)C[N+](C)(C)C)C(=O)Nc1cc(Cl)ccc1Cl)c(C)n2O | > 100 | > 100 | > 100 | > 100 | > 100 | > 100 | > 100 | > 100 |  | 
CN1CCN(C(=S)N(C(=O)c2ccc(Cl)cc2)C2CCCCC2)CC1 | > 100 |  | > 100 | > 100 | > 100 | > 100 |  | > 100 | > 100 | > 100
O=C1OC(=O)C2C1C1(c3ccccc3)OC2(c2ccccc2)c2c(Br)c(Br)c(Br)c(Br)c21 (stereo not given) | > 100 | > 100 | > 100 | > 100 | > 100 | > 100 | > 100 | > 100 |  | 
Cn1c(=O)c2nc3sc4ccccc4c(=N)n3c2n(C)c1=O | > 100 | > 100 | > 100 | > 100 | > 100 | > 100 | > 100 | > 100 |  | 
Fc1cccc(C2SCc3nc4ccccc4n32)c1 (stereo not given) | > 100 |  | > 100 | > 100 | > 100 | 69.1 | > 100 | 79.3 |  | 
O=c1c2ccc(Br)cc2nc(-c2ccccc2)n1NC1OC(CO)C(O)C(O)C1O (stereo not given) | > 100 | > 100 | > 100 | > 100 | > 100 | > 100 | > 100 | > 100 |  | 
COc1cc(C2C(C(=O)Nc3ccccc3C)=C(C)NC(C)=C2C(=O)Nc2ccccc2C)ccc1O | > 100 | > 100 | > 100 | > 100 |  | > 100 | > 100 | > 100 |  | 
CN=C(NC#N)NCc1ccccc1 | > 100 | > 100 | > 100 | > 100 | > 100 | > 100 | > 100 | > 100 |  | 
